We go through nine molecules from patent publication US12485179B2, “Cholecystokinin B receptor targeting for imaging and therapy” (Purdue Research Foundation, priority 2012, dated 2025).

Experiment [1] relates to HEK 293 cells expressing the CCK2R. The class given is cell-based. To be noted: for cell toxicity / potency: concentration range used (FIG. 16); for IC50: dose dependent toxicity. The procedure:
FIGS. 13A-C show the results of a study on the cytotoxicity of conjugate 23 in HEK CCK2R cells, shown at varying hours from introduction. CW-2478 denotes conjugate 23, with FIG. 13A showing values at 2 hours, FIG. 13B showing the values at 4 hours, and FIG. 13C showing the values at 9 hours.
This may partly explain the modest in vivo antitumor observed activity despite its impressive antagonistic effects.

In experiment [2] the test system is HEK 293 cells expressing CCK2R tumors. Kind of experiment: In vivo potency, subcutaneous HEK 293 CCK2R tumors. Also on record: species or system nu/nu mice. To be noted: for tumor size / growth during the period of the study / antitumor activity in comparison to untreated controls: 2 μmol/kg per injection. Here is the method: Following the promising results obtained in vitro with the Z-360 targeted chemotherapeutics, antitumor effects of the compounds were investigated in vivo. HEK 293 cells expressing CCK2R (5.0×10^6 in 50% HC matrigel) were injected in the shoulder of 5-6 week old female nu/nu mice. Tumors were measured in two perpendicular directions every two to three days with vernier calipers, and their volumes calculated as 0.5×L×W^2 where L is the longest axis (in millimeters) and W is the axis perpendicular to L (in millimeters). Dosing solutions were prepared in saline and administered through either the lateral vein of the mice for Tubulysin B conjugates or intraperitoneally for desacetylvinblastine hydrazide conjugates. Dosing was initiated when the subcutaneous tumors reached ˜100 mm^3 in volume. Each mouse received 2 μmol/kg of the test conjugate in 100 microliters of saline per injection, three times a week for three weeks. Mouse weights were also recorded at each dosing as a measure of gross toxicity. Mice in the control groups received no treatment.

The target of experiment [3] is T1, CCK2R (Homo sapiens, UniProt P32239).
T1 sequence (P32239 1-447): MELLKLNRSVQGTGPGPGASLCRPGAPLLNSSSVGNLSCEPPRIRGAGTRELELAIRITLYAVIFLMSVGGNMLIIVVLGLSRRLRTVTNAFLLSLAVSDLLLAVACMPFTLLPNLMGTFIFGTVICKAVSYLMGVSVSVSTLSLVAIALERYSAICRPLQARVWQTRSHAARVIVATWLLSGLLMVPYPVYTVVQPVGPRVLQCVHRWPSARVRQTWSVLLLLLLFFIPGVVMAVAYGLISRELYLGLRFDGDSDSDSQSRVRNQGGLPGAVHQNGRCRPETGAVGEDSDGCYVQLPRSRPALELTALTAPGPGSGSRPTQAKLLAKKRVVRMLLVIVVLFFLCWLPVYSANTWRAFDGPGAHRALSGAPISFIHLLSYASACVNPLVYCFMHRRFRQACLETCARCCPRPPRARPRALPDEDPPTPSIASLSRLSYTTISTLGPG
Conditions: cited from earlier work.

In experiment [4] the test system is subcutaneous PANC-1 tumor. To be noted: oral Z-360 along with gemcitabine, cited from earlier work.
In experiment [5] the target is T1, CCK2R. Kind of experiment: Binding of 99mTc conjugates to HEK-293 CCK2R cells (cell bound radioactivity). Details: expressed in transfected cells; host or cells: HEK-293, G418-selected, from Dr. Mark Hellmich (University of Texas at Galveston). Here is the method: CRL-1, CRL-2, CRL-3 and CRL-4 were chelated to ^99mTc and tested for binding using two transfected cell lines of HEK-CCK2R (HEK-293 CCK2R) and HEK-CCK2R splice cell line (HEK CCK2i4svR), obtained from Dr. Mark Hellmich (University of Texas at Galveston). Cells were cultured in Dulbecco's modified Eagles (Gibco) supplemented with 10% Fetal Bovine Serum and G418 disulfate (SIGMA; 400 μg/ml), 1% penicillin/streptomycin at 37° C. in a humidified 95% air, 5% CO2 atmosphere.
Competition studies were performed using 100 fold excess of free Z-360 containing corresponding peptide linker and no chelating moiety. HEK 293 CCK2R and HEK CCK2i4svR were seeded onto 24 well plates and allowed to become confluent over 48-72 hours. Spent medium in each well was replaced with 0.5 ml fresh media containing 0.5% BSA and increasing concentrations of the test article. After incubating for 1 h at 37° C. cells were rinsed with incubation solution (2×1.0 ml) to remove any unbound radioactivity. Cells were then resuspended on 0.5 ml 0.25N NaOH and cell radioactivity was counted using a γ-counter. The dissociation constant (KD) was calculated using a plot of cell bound radioactivity versus the concentration of the radiotracer using Graphpad Prism 4 and assuming a non-cooperative single site binding equilibrium.

[6] abbreviates: three times a week for three weeks.

On to `CC[C@]1(O)CC2CN(CCc3c([nH]c4ccccc34)[C@@](C(=O)OC)(c3cc4c(cc3OC)N(C)[C@H]3[C@@](O)(C(=O)NNC(=O)OCCSSC[C@H](NC(=O)[C@@H](CCC(=O)NC[C@H](O)[C@@H](O)[C@H](O)[C@H](O)CO)NC(=O)[C@@H](CCC(=O)O)NC(=O)[C@@H](CCC(=O)NC[C@H](O)[C@@H](O)[C@H](O)[C@H](O)CO)NC(=O)[C@@H](CCC(=O)O)NC(=O)CCCCCCCN)C(=O)O)[C@H](O)[C@]5(CC)C=CCN6CC[C@]43[C@@H]65)C2)C1` (some centres unmarked) [Unt-DAVBH], for which, in experiment [1], the “cell toxicity / potency” value is “little to no potency”. The “tumor size / growth during the period of the study” value in experiment [2] (setting [6]) was “grew at almost the same rate as untreated controls”.
What is called Ki is a measure of affinity in units of concentration, obtained from inhibition or displacement. Regarding `CC(C)(C)C(=O)CN1C(=O)[C@H](NC(=O)Nc2cccc(C(=O)O)c2)CN(C2CCCCC2)c2ccccc21` [Z-360, (R)-(−)-3-[3-(1-tert-butylcarbonylmethyl-2-oxo-5-cyclohexyl-1,3,4,5-tetrahydro-2H-1,5-benzodiazepin-3-yl)ureido]benzoic acid monohydrate], the “cell toxicity / potency” value in experiment [1] is given as “no concentration dependent cell toxicity”. Further, on CCK2R [3] (CCK2R over CCK1R), the “selectivity ratio over CCK1R” value is 672. Besides, the Ki at CCK2R [3] was 0.47 nM. Besides, the “inhibition of subcutaneous PANC-1 tumor growth” value in experiment [4] (compared with either agent alone) is reported as 27.1%. The survival result in experiment [4] (compared with the vehicle) was “significantly increased survival”.
A word on the IC50: it is the concentration that inhibits the measured activity by half. Read a high IC50 as weaker potency. Regarding vinblastine [reference compound], the IC50 in experiment [1] is 8 nM.
Take `CC(C)(C)C(=O)CN1C(=O)[C@H](NC(=O)Nc2cccc(C(=O)N[C@@H](CCC(=O)O)C(=O)N[C@@H](CCC(=O)NC[C@H](O)[C@@H](O)[C@H](O)[C@H](O)CO)C(=O)N[C@@H](CCC(=O)O)C(=O)N[C@@H](CCC(=O)NC[C@H](O)[C@@H](O)[C@H](O)[C@H](O)CO)C(=O)NC[C@H](N)C(=O)N[C@@H](CC(=O)O)C(=O)N[C@@H](CS)C(=O)O)c2)CN(C2CCCCC2)c2ccccc21` [CRL-2 ^99mTc, metal not drawn]: the “specificity of binding (competition with free Z-360)” value on CCK2R [5] (compared with CRL-1 99mTc) is on record as “significantly higher specificity”.
What is called Kd is the constant that tells how readily two partners part at equilibrium. `CC(C)(C)C(=O)CN1C(=O)[C@H](NC(=O)Nc2cccc(C(=O)NC[C@H](N)C(=O)N[C@@H](CC(=O)O)C(=O)N[C@@H](CS)C(=O)O)c2)CN(C2CCCCC2)c2ccccc21` [CRL-4 ^99mTc, metal not drawn]: on CCK2R [5] (1 h at 37° C., 99mTc chelated, read-out: Kd (nM) HEK-293-CCK2R Cells), the Kd amounted to 270 nM.
tubulysin b [reference compound] returned an IC50 in experiment [1] of 1.3 nM.
In turn, `CCCC(=O)OCN(C(=O)[C@@H](NC(=O)C1CCCCN1C)C(C)CC)[C@H](C[C@@H](OC(C)=O)c1nc(C(=O)N[C@@H](Cc2ccc(O)cc2)C[C@H](C)C(=O)NNC(=O)OCCSSC[C@H](NC(=O)[C@@H](CCC(=O)NC[C@H](O)[C@@H](O)[C@H](O)[C@H](O)CO)NC(=O)[C@@H](CCC(=O)O)NC(=O)[C@@H](CCC(=O)NC[C@H](O)[C@@H](O)[C@H](O)[C@H](O)CO)NC(=O)[C@@H](CCC(=O)O)NC(=O)CCCCCCCNC(=O)c2cccc(NC(=O)N[C@@H]3CN(C4CCCCC4)c4ccccc4N(CC(=O)C(C)(C)C)C3=O)c2)C(=O)O)cs1)C(C)C` (some centres unmarked) [conjugate 22] showed an IC50 in experiment [1] of 12 nM. Moreover, in experiment [2] (setting [6]), the “antitumor activity in comparison to untreated controls” value (shortened to “antitumor activity in comparison”) was “remarkable antitumor activity” and the “tumor size / growth during the period of the study” value is given as “reduction of tumor sizes”. Moreover, in experiment [2] (2 μmol/kg, three times a week for three weeks, lateral vein), the disappearance of tumors entry is given as “⅗”.
For the molecule `CCCC(=O)OCN(C(=O)[C@@H](NC(=O)C1CCCCN1C)C(C)CC)[C@H](C[C@@H](OC(C)=O)c1nc(C(=O)N[C@@H](Cc2ccc(O)cc2)C[C@H](C)C(=O)NNC(=O)OCCSSC[C@H](NC(=O)[C@@H](CCC(=O)NC[C@H](O)[C@@H](O)[C@H](O)[C@H](O)CO)NC(=O)[C@@H](CCC(=O)O)NC(=O)[C@@H](CCC(=O)NC[C@H](O)[C@@H](O)[C@H](O)[C@H](O)CO)NC(=O)[C@@H](CCC(=O)O)NC(=O)CCCCCCCN)C(=O)O)cs1)C(C)C` (some centres unmarked) [Unt-TubH], the “cell toxicity / potency” value in experiment [1] is “little to no potency”. Also, the “antitumor activity in comparison” value in experiment [2] (setting [6]) is “modest tumor inhibition”.
As for `CC[C@]1(O)C[C@@H]2CN(CCc3c([nH]c4ccccc34)[C@@](C(=O)OC)(c3cc4c(cc3OC)N(C)[C@H]3[C@@](O)(C(=O)NNC(=O)OCCSSC[C@H](NC(=O)[C@H](CCC(=O)NC[C@H](O)[C@@H](O)[C@H](O)[C@H](O)CO)NC(=O)[C@H](CCC(=O)O)NC(=O)[C@H](CCC(=O)NC[C@H](O)[C@@H](O)[C@H](O)[C@H](O)CO)NC(=O)[C@H](CCC(=O)O)NC(=O)CCCCCCCNC(=O)c5cccc(NC(=O)N[C@@H]6CN(C7CCCCC7)c7ccccc7N(CC(=O)C(C)(C)C)C6=O)c5)C(=O)O)[C@H](O)[C@]5(CC)C=CCN6CC[C@]43[C@@H]65)C2)C1` [conjugate 23], in experiment [2] (setting [6]), the “antitumor activity in comparison” value is given as “remarkable antitumor activity” and the “tumor size / growth during the period of the study” value is “remain the same size”. Moreover, in experiment [2] (conjugate 23 and conjugate 23+competition groups), the “H & E staining of remaining tumor masses” value is reported as “contain very few malignant cells”.
